Target: T1, glutathione peroxidase 1 (GPx-1) (Bos taurus, UniProt P00435)
T1 sequence (P00435 1-205): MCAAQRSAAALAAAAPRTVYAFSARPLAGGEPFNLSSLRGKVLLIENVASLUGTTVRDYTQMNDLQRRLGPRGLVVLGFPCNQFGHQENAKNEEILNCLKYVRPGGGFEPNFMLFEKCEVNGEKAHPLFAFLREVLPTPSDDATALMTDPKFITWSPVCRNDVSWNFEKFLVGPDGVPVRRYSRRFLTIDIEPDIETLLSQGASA
Assay: immobilized enzyme inactivation, GR-coupled NADPH assay at […] nm after wash-out
Assay type: biochemical

`CCN1C(=O)C=CC1=O` [NEM, N-ethylmaleimide] was tested, and the IC50 was 8.77 mM.
